Data set [1] concerns Staphylococcus epidermidis. In words: Antibacterial activity against Staphylococcus epidermidis after 16 to 18 hrs by broth microdilution method. Conditions: time 16-18 hrs. In kind it is functional. Background: In broth dilution the organism is exposed to a series of concentrations in liquid medium.
In data set [2] the test system is Escherichia coli. The data set can be described thus: Antibacterial activity against Escherichia coli ATCC 25922 after 16 to 18 hrs by broth microdilution method. In kind it is functional. Particulars: time 16-18 hrs.
For data set [3], the system named is Acinetobacter baumannii. The data set can be described thus: Antibacterial activity against Acinetobacter baumannii Bio 34235 after 16 to 18 hrs by broth microdilution method. It is filed as functional. Particulars: time 16-18 hrs.
The target of data set [4] is T1, Peptide deformylase (Staphylococcus aureus, UniProt P68826).
T1 sequence (P68826 whole entry): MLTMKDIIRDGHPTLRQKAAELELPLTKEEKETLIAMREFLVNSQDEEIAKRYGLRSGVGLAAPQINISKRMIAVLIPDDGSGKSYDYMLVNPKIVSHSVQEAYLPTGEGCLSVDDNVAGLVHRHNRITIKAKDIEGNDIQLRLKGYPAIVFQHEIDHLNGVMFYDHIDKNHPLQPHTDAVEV
The data set can be described thus: Inhibition of Staphylococcus aureus PDF-Ni assessed as enzyme activity incubated for 30 min by fluorescamine method.

Data set [5] has as its system Staphylococcus aureus. In words: Antibacterial activity against methicillin-resistant Staphylococcus aureus ATCC 43300 after 16 to 18 hrs by broth microdilution method. In kind it is functional. Particulars: time 16-18 hrs.
Data set [6] deals with T2, Peptide deformylase (Escherichia coli, UniProt Q9JN24).
T2 sequence (Q9JN24 whole entry): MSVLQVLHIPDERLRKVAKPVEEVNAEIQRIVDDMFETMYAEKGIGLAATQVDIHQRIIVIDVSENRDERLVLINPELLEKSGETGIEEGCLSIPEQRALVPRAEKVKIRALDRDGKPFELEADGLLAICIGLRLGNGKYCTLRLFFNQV
The data set can be described thus: Inhibition of Escherichia coli PDF-Ni assessed as enzyme activity incubated for 30 min by fluorescamine method.

In data set [7] the test system is Acinetobacter baumannii. In words: Antibacterial activity against drug-resistant Acinetobacter baumannii Bio 53272 after 16 to 18 hrs by broth microdilution method. In kind it is functional. Conditions: time 16-18 hrs.
For data set [8], the system named is Staphylococcus aureus. The data set can be described thus: Antibacterial activity against methicillin-susceptible Staphylococcus aureus ATCC 13709 after 16 to 18 hrs by broth microdilution method. In kind it is functional. Conditions: time 16-18 hrs.
Data set [9] concerns Staphylococcus aureus. In words: Antibacterial activity against methicillin-susceptible Staphylococcus aureus ATCC 29213 after 16 to 18 hrs by broth microdilution method. Conditions: time 16-18 hrs. It is filed as functional.
The subject of data set [10] is Klebsiella pneumoniae. The data set can be described thus: Antibacterial activity against Klebsiella pneumoniae CICC 21611 after 16 to 18 hrs by broth microdilution method. It is filed as functional. Particulars: time 16-18 hrs.
Data set [11] has as its system Staphylococcus aureus. The data set can be described thus: Antibacterial activity against methicillin-susceptible Staphylococcus aureus ATCC 25923 after 16 to 18 hrs by broth microdilution method. It is filed as functional. Particulars: time 16-18 hrs.
The subject of data set [12] is Staphylococcus aureus. The data set can be described thus: Antibacterial activity against methicillin-resistant Staphylococcus aureus ATCC 33591 after 16 to 18 hrs by broth microdilution method. In kind it is functional. Conditions: time 16-18 hrs.
Data set [13] relates to Staphylococcus aureus. In words: Antibacterial activity against methicillin-resistant Staphylococcus aureus Bio-090770 after 16 to 18 hrs by broth microdilution method. In kind it is functional. Particulars: time 16-18 hrs.
A short description of data set [14]: Cytotoxicity against human HeLa cells assessed as cell viability at 3.125 to 100 uM incubated for 24 hrs by MTT assay. In kind it is toxicity, cell-based.
Data set [15] in a line: Cytotoxicity against human HEK293T cells assessed as cell viability at 3.125 to 100 uM incubated for 24 hrs by MTT assay. In kind it is toxicity, cell-based, HEK-293T. On the technique in general: Tetrazolium dyes change colour on reduction, which living cells bring about.
The subject of data set [16] is Klebsiella pneumoniae. In words: Antibacterial activity against Klebsiella pneumoniae CICC 20093 after 16 to 18 hrs by broth microdilution method. It is filed as functional. Conditions: time 16-18 hrs.
Data set [17] deals with Acinetobacter baumannii. The data set can be described thus: Antibacterial activity against Acinetobacter baumannii Bio 120982 after 16 to 18 hrs by broth microdilution method. It is filed as functional. Particulars: time 16-18 hrs.
In data set [18] the test system is Escherichia coli. The data set can be described thus: Antibacterial activity against Escherichia coli ATCC 10668 after 16 to 18 hrs by broth microdilution method. In kind it is functional. Particulars: time 16-18 hrs.
Data set [19] deals with Acinetobacter baumannii. In words: Antibacterial activity against Acinetobacter baumannii Bio 24253 after 16 to 18 hrs by broth microdilution method. In kind it is functional. Particulars: time 16-18 hrs.
In data set [20] the test system is Acinetobacter baumannii. In words: Antibacterial activity against Acinetobacter baumannii Bio 69680 after 16 to 18 hrs by broth microdilution method. In kind it is functional. Conditions: time 16-18 hrs.
Data set [21] can be described thus: Aqueous solubility of compound at 0.9% aqueous NaCl solution incubated for 2 hrs by UV spectrophotometry analysis. In kind it is physicochemical.
In data set [22] the test system is Acinetobacter baumannii. The data set can be described thus: Antibacterial activity against Acinetobacter baumannii Bio 53272 after 16 to 18 hrs by broth microdilution method. In kind it is functional. Particulars: time 16-18 hrs.
Data set [23] concerns Escherichia coli. The data set can be described thus: Antibacterial activity against Escherichia coli ATCC 10661 after 16 to 18 hrs by broth microdilution method. It is filed as functional. Conditions: time 16-18 hrs.
Data set [24] has as its system Klebsiella pneumoniae. In words: Antibacterial activity against Klebsiella pneumoniae CICC 21092 after 16 to 18 hrs by broth microdilution method. In kind it is functional. Particulars: time 16-18 hrs.
Data set [25] concerns Escherichia coli. In words: Antibacterial activity against Escherichia coli ATCC 10663 after 16 to 18 hrs by broth microdilution method. Particulars: time 16-18 hrs. In kind it is functional.
Data set [26] concerns Acinetobacter baumannii. The data set can be described thus: Antibacterial activity against Acinetobacter baumannii Bio 53250 after 16 to 18 hrs by broth microdilution method. In kind it is functional. Particulars: time 16-18 hrs.
Data set [27] has as its system Staphylococcus aureus. The data set can be described thus: Bactericidal activity against methicillin-resistant Staphylococcus aureus assessed as bacteriostatic efficiency at 0.5 microg/mL incubated for 24 hrs by time killing analysis relative to control. In kind it is functional. Particulars: dose 0.5 µg/ml.
A short description of data set [28]: Acute toxicity in KM mouse infected with drug-resistant Acinetobacter baumannii assessed as pathological changes in liver at 40 mg/kg by HE staining based analysis. It is filed as organism-based. Particulars: in vivo.
Data set [29] in a line: Acute toxicity in KM mouse infected with drug-resistant Acinetobacter baumannii assessed as pathological changes in kidney at 40 mg/kg by HE staining based analysis. It is filed as organism-based. Conditions: in vivo.
Data set [30] can be described thus: Acute toxicity in KM mouse infected with drug-resistant Acinetobacter baumannii assessed as pathological changes in lungs at 40 mg/kg by HE staining based analysis. Conditions: in vivo. It is filed as organism-based.
Data set [31] can be described thus: Acute toxicity in KM mouse infected with drug-resistant Acinetobacter baumannii assessed as survival rate at 40 mg/kg. It is filed as organism-based. Particulars: in vivo.

In brackets after ≈: the same amount, converted by molar mass.

In general, MIC refers to the lowest concentration found to suppress growth. The low end stands for a more susceptible organism, the high end for a less susceptible organism. By IC50 is commonly meant the midpoint of a concentration-inhibition curve. Consider `CCCC[C@H](CN(O)C=O)C(=O)N1CCC[C@H]1c1nnc(-c2ccc(C)s2)s1`, for which the MIC in data set [1] was 1 mg/L (≈ 2.37 µM); against Escherichia coli [2], 64 mg/L (≈ 151 µM); in the data set on Acinetobacter baumannii [3], 32 mg/L (≈ 75.7 µM); in the data set with Staphylococcus aureus [5] it was 0.25 mg/L (≈ 0.592 µM); against Acinetobacter baumannii [7], 16 mg/L (≈ 37.9 µM); in the data set on Staphylococcus aureus [8], 2 mg/L (≈ 4.73 µM). For the same molecule, the MIC against Staphylococcus aureus [9] came out at 2 mg/L (≈ 4.73 µM); against Klebsiella pneumoniae [10] it was 32 mg/L (≈ 75.7 µM); with Staphylococcus aureus [11], 4 mg/L (≈ 9.47 µM); with Staphylococcus aureus [12], 0.25 mg/L (≈ 0.592 µM); with Staphylococcus aureus [13], 2 mg/L (≈ 4.73 µM). Also, the IC50 came to 0.0074 µM on Peptide deformylase [4] and 0.0985 µM at Peptide deformylase [6].
For orientation: solubility means how much of the substance goes into solution per volume. In the case of `CCCC[C@H](CN(O)C=O)C(=O)N1CCC[C@H]1c1nnc(-c2ccc(-c3ccccn3)cc2)s1`, the MIC in data set [1] is 1 mg/L (≈ 2.09 µM); with Escherichia coli [2], 64 mg/L (≈ 133 µM); with Acinetobacter baumannii [3] it was 32 mg/L (≈ 66.7 µM); in the data set with Klebsiella pneumoniae [16], 16 mg/L (≈ 33.4 µM); in the data set with Acinetobacter baumannii [17], 32 mg/L (≈ 66.7 µM); with Escherichia coli [18], 16 mg/L (≈ 33.4 µM). Besides, the minimal inhibitory concentration (MIC) in the data set with Acinetobacter baumannii [19] was determined as 32 mg/L (≈ 66.7 µM); against Acinetobacter baumannii [20] it was 32 mg/L (≈ 66.7 µM); against Acinetobacter baumannii [22] it was 32 mg/L (≈ 66.7 µM); with Staphylococcus aureus [5] it was 0.25 mg/L (≈ 0.521 µM); with Acinetobacter baumannii [7] it was 32 mg/L (≈ 66.7 µM); in the data set on Escherichia coli [23], 16 mg/L (≈ 33.4 µM). In addition, the MIC with Staphylococcus aureus [8] amounted to 0.5 mg/L (≈ 1.04 µM); with Staphylococcus aureus [9] it was 0.5 mg/L (≈ 1.04 µM); in the data set with Klebsiella pneumoniae [24], 32 mg/L (≈ 66.7 µM); in the data set on Klebsiella pneumoniae [10], 32 mg/L (≈ 66.7 µM); against Escherichia coli [25], 16 mg/L (≈ 33.4 µM); in the data set with Staphylococcus aureus [11] it was 0.25 mg/L (≈ 0.521 µM). In addition, the MIC with Staphylococcus aureus [12] came out at 0.125 mg/L (≈ 0.261 µM); with Staphylococcus aureus [13] it was 0.5 mg/L (≈ 1.04 µM); against Acinetobacter baumannii [26], 32 mg/L (≈ 66.7 µM). For the same molecule, the IC50 at 24 h in [14] is 89 µM; in data set [15] it was greater than 100 µM. Further, the IC50 at Peptide deformylase [4] stood at 0.0043 µM; on Peptide deformylase [6], 0.124 µM. Also, the solubility at 2 h in [21] stood at 0.37 mg/mL (≈ 771 µM).
On to `CCCC[C@H](CN(O)C=O)C(=O)N1CCC[C@H]1c1nnc(-c2ccc([N+](=O)[O-])cc2F)s1`, for which the MIC in [1] was 0.5 mg/L (≈ 1.07 µM); in the data set with Escherichia coli [2], greater than 16 mg/L; against Acinetobacter baumannii [3] it was greater than 16 mg/L; in the data set on Klebsiella pneumoniae [16] it was 16 mg/L (≈ 34.4 µM); against Acinetobacter baumannii [17], 16 mg/L (≈ 34.4 µM); against Escherichia coli [18], 16 mg/L (≈ 34.4 µM). Further, the minimal inhibitory concentration (MIC) is 32 mg/L (≈ 68.7 µM) in the data set with Acinetobacter baumannii [19]; 16 mg/L (≈ 34.4 µM) in the data set with Acinetobacter baumannii [20]; 16 mg/L (≈ 34.4 µM) in the data set on Acinetobacter baumannii [22]; 0.125 mg/L (≈ 0.269 µM) in the data set on Staphylococcus aureus [5]; greater than 16 mg/L against Acinetobacter baumannii [7]; 8 mg/L (≈ 17.2 µM) against Escherichia coli [23]. Further, the MIC in the data set on Staphylococcus aureus [8] is 0.5 mg/L (≈ 1.07 µM); in the data set with Staphylococcus aureus [9], 0.5 mg/L (≈ 1.07 µM); with Klebsiella pneumoniae [24] it was 32 mg/L (≈ 68.7 µM); in the data set on Klebsiella pneumoniae [10], 16 mg/L (≈ 34.4 µM); against Escherichia coli [25], 8 mg/L (≈ 17.2 µM); against Staphylococcus aureus [11] it was 0.25 mg/L (≈ 0.537 µM). Also, the minimal inhibitory concentration (MIC) against Staphylococcus aureus [12] amounted to 0.125 mg/L (≈ 0.269 µM); against Staphylococcus aureus [13] it was 0.5 mg/L (≈ 1.07 µM); against Acinetobacter baumannii [26] it was 16 mg/L (≈ 34.4 µM). Moreover, the IC50 at 24 h in data set [14] is 91.7 µM; in data set [15] it was greater than 100 µM. Besides, in data set [21], the solubility at 2 h turned out to be 2.02 mg/mL (≈ 4340 µM). The Activity in the data set on Staphylococcus aureus [27] is 100%.
Turning to `O=C(O)c1cn(C2CC2)c2cc(N3CCNCC3)c(F)cc2c1=O` [CIPROFLOXACIN], the MIC in data set [1] turned out to be 0.06 mg/L (≈ 0.181 µM); against Acinetobacter baumannii [3] it was 0.5 mg/L (≈ 1.51 µM); against Staphylococcus aureus [5], 64 mg/L (≈ 193 µM); against Acinetobacter baumannii [7], 32 mg/L (≈ 96.6 µM); in the data set on Staphylococcus aureus [8], 8 mg/L (≈ 24.1 µM); against Staphylococcus aureus [9], 8 mg/L (≈ 24.1 µM). For the same molecule, the minimum inhibitory concentration (MIC) with Klebsiella pneumoniae [10] was 0.03 mg/L (≈ 0.0905 µM); against Staphylococcus aureus [11], 4 mg/L (≈ 12.1 µM); against Staphylococcus aureus [12], 0.25 mg/L (≈ 0.754 µM); against Staphylococcus aureus [13], 0.5 mg/L (≈ 1.51 µM). Further, the Activity entry in data set [28], in data set [29], in data set [30] and in data set [31] was “Toxic” throughout.

Values taken from ChEMBL document CHEMBL6121016, “Design, Synthesis, and Biological Evaluation of 1,3,4-Thiadiazole Derivatives as Novel Potent Peptide Deformylase Inhibitors for Combating Drug-Resistant Gram-Positive and -Negative Bacteria” (J Med Chem, 2025).
